Measured values reported in article PMC5467912, “Asymmetric regulation of quorum-sensing receptors drives autoinducer-specific gene expression programs in Vibrio cholerae” (PLoS Genetics, 2017).
“And” between values parts separate entries of the source, which are not always exact repeats. Identical values can stand only once. Like-named read-outs stand apart in the source and are kept apart here.

Columns and labels:
WT CqsS [1] = test system: T1, WT CqsS; format: biochemical; conditions: for % Total Phosphorylation: CqsS WT
T1 construct: made in house; host or cells: E. coli C43 (DE3), pET21b; used as inverted membrane vesicles

CqsS C170Y = test: CqsS-dependent repression of qrr4-gfp, CqsS C170Y (Fig 7C); format: cell-based, Vibrio cholerae; conditions: Treatment 1uM; CqsS mutant C170Y
CqsS D618N = test system: T2, CqsS D618N; test: CqsS D618N autophosphorylation in inverted membrane vesicles, 32P (Fig 7A); format: biochemical, Vibrio cholerae
T2 construct: made in house; host or cells: E. coli C43 (DE3), pET21b; used as inverted membrane vesicles

WT CqsS [2] = test system: T1, WT CqsS; format: cell-based; conditions: Treatment 1uM
CqsS F166L = test: CqsS-dependent repression of qrr4-gfp, CqsS F166L (Fig 7C); format: cell-based, Vibrio cholerae; conditions: Treatment 1uM; CqsS mutant F166L
CqsS [3] = molecular target: T3, CqsS (Vibrio cholerae serotype O1, UniProt Q9KM66); test: cell-based; conditions: for Light production: strain WN1102; for RLU: Strain WN1102
T3 construct: endogenous in cells; host or cells: V. cholerae WN1102 (ΔcqsA ΔluxQ/pBB1), derived from C6706str2

CqsS F162A = test: CqsS-dependent repression of qrr4-gfp, CqsS F162A (Fig 7C); format: cell-based, Vibrio cholerae; conditions: Treatment 1uM; CqsS mutant F162A
CqsS [4] = format: cell-based; conditions: for CqsS Dimers / Relative dimers, Final experimental replicates / Relative dimers (CqsS, normalized to WT Ave): LuxS-CqsA-, AI-2 1 μM, CAI-1 5 μM; for CqsS Dimers / Relative dimers (CqsS, normalized to WT Ave): single replicates
qrr4 = format: cell-based
[5] = test system: QS-controlled luxCDABE operon; format: cell-based; conditions: for RLU: PluxPQ-CqsS::3XFLAG LuxS-CqsA-
hapA = format: cell-based
[6] = test system: QS-controlled luxCDABE operon; format: cell-based; conditions: for RLU: Strain AH371

CCn1nnnc1NCc1ccc(N2CCCC2)cc1 [#1]
% Total Phosphorylation (WT CqsS [1]; Agonist 0.1 uM): 100.558% and 115.09% and 103.96% and 101.973%
% Total Phosphorylation (WT CqsS [1]; Agonist 0.5 uM): 68.5791% and 92.92% and 82.55% and 69.9852%
% Total Phosphorylation (WT CqsS [1]; Agonist 1 uM): 45.0881% and 63.83% and 58.45% and 44.3406%
% Total Phosphorylation (WT CqsS [1]; Agonist 2.5 uM): 26.3754% and 21.56% and 17.64% and 21.3677%
% Total Phosphorylation (WT CqsS [1]; Agonist 5 uM): 11.5601% and 8.94% and 7.65% and 9.2554%
% Total Phosphorylation (WT CqsS [1]; Agonist 10 uM): 6.306% and 5.77% and 3.8% and 4.014%
% Total Phosphorylation (WT CqsS [1]; Agonist 20 uM): 3.59% and 2.41% and 2.332%
% Total Phosphorylation (WT CqsS [1]; Agonist 30 uM): 2.867% and 2.2% and 1.97% and 1.073%
% Total Phosphorylation (WT CqsS [1]; Agonist 100 uM): 1.456% and 1.61% and 2.02% and 0.9371%
% Total Phosphorylation (WT CqsS [1]; Agonist 200 uM): 0.8391% and 0.1631%
inhibition of WT CqsS autophosphorylation (WT CqsS [1]; saturating concentration (Fig 7B)): 99%
Qrr4-GFP/OD600 (CqsS C170Y): 18211780 and 19558860 and 23085030
% Total Phosphorylation (CqsS D618N; agonist 0.32 uM): 64.1931% and 55.8048% and 58.0668% and 77.924% and 56.4082%
% Total Phosphorylation (CqsS D618N; agonist 10 uM): 1.9% and 2.181% and 3.3092% and 3.5805%
Qrr4-GFP/OD600 (WT CqsS [2]): 1321723 and 1319147 and 1356464
Qrr4-GFP/OD600 (CqsS F166L): 1372627 and 1402431 and 1341231
Light production (CqsS [3]; Agonist 0.0119209 nM): 14433 RLU and 16087 RLU and 17053 RLU
Light production (CqsS [3]; Agonist 0.0476837 nM): 23351 RLU and 21676 RLU and 24048 RLU
Light production (CqsS [3]; Agonist 0.190735 nM): 38851 RLU and 41951 RLU and 36905 RLU
Light production (CqsS [3]; Agonist 0.762939 nM): 87702 RLU and 80982 RLU and 79024 RLU
Light production (CqsS [3]; Agonist 3.05176 nM): 716543 RLU and 579623 RLU and 556962 RLU
Light production (CqsS [3]; Agonist 12.207 nM): 18832900 RLU and 18957270 RLU and 17907730 RLU
Light production (CqsS [3]; Agonist 48.8281 nM): 80742000 RLU and 84094230 RLU and 86837650 RLU
Light production (CqsS [3]; Agonist 195.312 nM): 115208300 RLU and 122904000 RLU and 129103600 RLU
Light production (CqsS [3]; Agonist 781.25 nM): 116783100 RLU and 133656800 RLU and 131724500 RLU
Light production (CqsS [3]; Agonist 3125 nM): 109482900 RLU and 129285000 RLU and 130316000 RLU
Light production (CqsS [3]; Agonist 12500 nM): 93560740 RLU and 110559800 RLU and 116375500 RLU
Light production (CqsS [3]; Agonist 50000 nM): 59185800 RLU and 66981220 RLU and 65547470 RLU
fold more potent than CAI-1 (CqsS [3]; EC50 comparison): ~ 10 fold
RLU (CqsS [3]; agonist 0.0119209 nM): 1.70E+04 RLU and 1.69E+04 RLU and 1.12E+04 RLU
RLU (CqsS [3]; agonist 0.0476837 nM): 2.55E+04 RLU and 2.29E+04 RLU and 2.60E+04 RLU
RLU (CqsS [3]; agonist 0.190735 nM): 4.47E+04 RLU and 4.12E+04 RLU and 4.19E+04 RLU
RLU (CqsS [3]; agonist 0.762939 nM): 6.42E+04 RLU and 6.05E+04 RLU and 7.48E+04 RLU
RLU (CqsS [3]; agonist 3.05176 nM): 2.06E+05 RLU and 2.32E+05 RLU and 3.12E+05 RLU
RLU (CqsS [3]; agonist 12.207 nM): 1.01E+07 RLU and 9.84E+06 RLU and 1.23E+07 RLU
RLU (CqsS [3]; agonist 48.8281 nM): 9.23E+07 RLU and 8.51E+07 RLU and 1.09E+08 RLU
RLU (CqsS [3]; agonist 195.312 nM): 1.65E+08 RLU and 1.58E+08 RLU and 1.92E+08 RLU
RLU (CqsS [3]; agonist 781.25 nM): 1.94E+08 RLU and 2.03E+08 RLU and 2.28E+08 RLU
RLU (CqsS [3]; agonist 3125 nM): 2.05E+08 RLU and 2.11E+08 RLU and 2.23E+08 RLU
RLU (CqsS [3]; agonist 12500 nM): 1.88E+08 RLU and 1.94E+08 RLU and 1.93E+08 RLU
RLU (CqsS [3]; agonist 50000 nM): 1.33E+08 RLU and 1.29E+08 RLU
EC50 (CqsS [3]; light production, reporter strain WN1102, 4 h at 30 °C): 4 nM
Qrr4-GFP/OD600 (CqsS F162A): 15523160 and 14988240 and 15125460

C[C@]12OC[C@H](O)[C@@]1(O)O[B-](O)(O)O2 [AI-2, (2S, 4S)-2-methyl-2,3,3,4-tetrahydroxytetrahydrofuran borate]
Relative dimers, Average of 111816 reps (CqsS [4]; HCD): 0.8076 and 0.9392
CqsS Dimers (CqsS [4]; HCD (OD600 = 2.0)): 120.316 and 41.5193 and 39.7812 and 190.837 and 226.59 and 73.4627 and 88.226 and 103.067
Relative dimers, Final experimental replicates (CqsS [4]; HCD): 0.8076 and 0.9392 and 0.977 and 1.14 and 0.4129 and 0.3956
Relative dimers (CqsS, normalized to WT Ave) (CqsS [4]; HCD): 0.7384 and 0.8768 and 0.8534 and 1.025 and 0.977 and 1.14 and 0.4129 and 0.3956
Relative dimers, Average of 111816 reps (CqsS [4]; LCD): 1.105 and 0.8147
CqsS Dimers (CqsS [4]; LCD (OD600 = 0.2)): 53.516 and 13.7214 and 12.1436 and 82.1482 and 72.8907 and 15.3978 and 28.2649 and 41.282
Relative dimers, Final experimental replicates (CqsS [4]; LCD): 1.105 and 0.8147 and 1.157 and 1.5 and 0.8624 and 0.7633
Relative dimers (CqsS, normalized to WT Ave) (CqsS [4]; LCD): 1.171 and 1.039 and 0.5746 and 1.055 and 1.157 and 1.5 and 0.8624 and 0.7633
CqsS protein levels (CqsS [4]; ΔcqsA ΔluxS mutant, LCD and HCD): increased CqsS protein levels to nearly that present in the WT
RLU relative to Average WT (qrr4; LuxS-CqsA- strain + autoinducer, Average WT 115335416.84): 29.34 and 29.68 and 31.98
RLU, average per biological replicate (Totals) (qrr4; LuxS-CqsA- strain + autoinducer, Rep 1-3): 3.38E+09 RLU and 3.42E+09 RLU and 3.69E+09 RLU
reduction of qrr4-luxCDABE expression (qrr4; saturating autoinducer, ΔcqsA ΔluxS mutant): 2 fold
RLU ([5]; OD600 0.0532): 1.35E+07 RLU
RLU ([5]; OD600 0.2928): 9.01E+07 RLU
RLU ([5]; OD600 0.826): 1.12E+09 RLU
RLU ([5]; OD600 1.094): 3.16E+09 RLU
RLU ([5]; OD600 1.626): 2.09E+10 RLU
RLU ([5]; OD600 2.281): 2.23E+10 RLU
QS response when cqsS is under the luxPQ promoter ([5]; S9B Fig): caused premature induction of QS
increase in hapA expression (hapA; LuxQ+ AI-2- strain (ΔcqsS ΔcqsR ΔvpsS ΔluxS)): 27 fold
increase in hapA expression (hapA; ΔcqsA ΔluxS strain, HCD): 4 fold
Light production ([6]; LuxS-CqsA- +AI-2 1 μM, OD600 0.0275): 5854546 RLU
Light production ([6]; LuxS-CqsA- +AI-2 1 μM, OD600 0.0589): 5025467 RLU
Light production ([6]; LuxS-CqsA- +AI-2 1 μM, OD600 0.2147): 1280857 RLU
Light production ([6]; LuxS-CqsA- +AI-2 1 μM, OD600 0.4541): 1704470 RLU
Light production ([6]; LuxS-CqsA- +AI-2 1 μM, OD600 1.201): 1856786 RLU
Light production ([6]; LuxS-CqsA- +AI-2 1 μM, OD600 1.481): 34976370 RLU
Light production ([6]; LuxS-CqsA- +AI-2 1 μM, OD600 1.867): 25388320 RLU
Light production ([6]; LuxS-CqsA- +AI-2 1 μM, OD600 3.776): 12473520 RLU
Light production ([6]; LuxS-CqsA-, AI-2 1 μM, CAI-1 5 μM, OD600 0.005): 108432 RLU
RLU ([6]; agonist 0.0476837 nM): 2.35E+03 RLU and 4.30E+03 RLU and 4.28E+03 RLU
RLU ([6]; agonist 0.762939 nM): 2.47E+03 RLU and 4.79E+03 RLU and 4.30E+03 RLU
RLU ([6]; agonist 3.05176 nM): 2.44E+03 RLU and 2.42E+03 RLU and 2.17E+03 RLU
RLU ([6]; agonist 12.207 nM): 2.38E+03 RLU and 4.73E+03 RLU and 4.30E+03 RLU
RLU ([6]; agonist 48.8281 nM): 9.41E+03 RLU and 7.14E+03 RLU and 8.89E+03 RLU
RLU ([6]; agonist 195.312 nM): 2.21E+04 RLU and 3.23E+04 RLU and 2.62E+04 RLU
RLU ([6]; agonist 781.25 nM): 6.41E+04 RLU and 4.85E+04 RLU and 5.29E+04 RLU
RLU ([6]; agonist 3125 nM): 6.25E+04 RLU and 6.51E+04 RLU and 5.68E+04 RLU
RLU ([6]; agonist 12500 nM): 7.03E+04 RLU and 7.29E+04 RLU and 6.20E+04 RLU
increase in light production ([6]; saturating autoinducer, HCD, vs untreated ΔcqsA ΔluxS): 100 fold
